Measurements from patent publication US6534524B1, “Indazole compounds and pharmaceutical compositions for inhibiting protein kinases, and methods for their use” (Agouron Pharmaceuticals, Inc., priority 1999, dated 2003).
Where two headings read alike, the source gives them in different places.

System: human umbilical vein endothelial cells (HUVEC)
Assay: HUVEC proliferation assay (VEGF-stimulated, MTT);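 as to % inhibition of the proliferation of HUVEC: relative to VEGF-stimulated control minus starvation-medium baseline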
Assay type: cell-based
Details: for % inhibition of the proliferation of HUVEC / % inhibition: crude reaction mixtures; for % inhibition: Library III, HUVEC proliferation, nominal concentration of 0.5 nM; for IC50: Homo sapiens, HUVEC
Description: HUVEC Proliferation Assay
This assay determines the ability of a test compound to inhibit the growth factor-stimulated proliferation of human umbilical vein endothelial cells (“HUVEC”). HUVEC cells (passage 3-4, Clonetics, Corp.) were thawed into EGM2 culture medium (Clonetics Corp) in T75 flasks. Fresh EGM2 medium was added to the flasks 24 hours later. Four or five days later, cells were exposed to another culture medium (F12K medium supplemented with 10% fetal bovine serum (FBS), 60 μg/mL endothelial cell growth supplement (ECGS), and 0.1 mg/mL heparin). Exponentially-growing HUVEC cells were used in experiments thereafter. Ten to twelve thousand HUVEC cells were plated in 96-well dishes in 100 μl of rich, culture medium (described above). The cells were allowed to attach for 24 hours in this medium. The medium was then removed by aspiration and 105 μl of starvation media (F12K+1% FBS) was added to each well. After 24 hours, 15 μl of test agent dissolved in 1% DMSO in starvation medium or this vehicle alone was added into each treatment well; the final DMSO concentration was 0.1%. One hour later, 30 μl of VEGF (30 ng/mL) in starvation media was added to all wells except those containing untreated controls; the final VEGF concentration was 6 ng/mL. Cellular proliferation was quantified 72 hours later by MTT dye reduction, at which time cells were exposed for 4 hours MTT (Promega Corp.).
For screening compound library plates, one or two concentrations (one well per concentration) were employed, and the % inhibition was calculated by the following formula:
% inhibition=(control−test)÷(control−starvation)
% inhibition=(control-treated)/(control-starvation)×100

[1] = Library II, Y=S, 0.5 mM (column head; text: nominal 0.5 nM)
[2] = Library II, Y=S, 2 mM (column head; text: nominal 2 nM)
[3] = Library I, Y = CO, nominal concentration of 10 nM
[4] = Library I, Y = NH, nominal concentration of 10 nM
[5] = Library I, Y = O, nominal concentration of 10 nM

O=C(NCCc1c[nH]cn1)c1ccccc1Sc1ccc2c(/C=C/c3ccccn3)n[nH]c2c1
% inhibition of the proliferation of HUVEC [1]: 23% | % inhibition of the proliferation of HUVEC [2]: −32%

Cc1csc(NC(=O)c2ccccc2Sc2ccc3c(/C=C/c4ccccn4)n[nH]c3c2)n1
% inhibition of the proliferation of HUVEC [1]: 15% | % inhibition of the proliferation of HUVEC [2]: 95%

O=C(NC1(CO)CCCC1)c1ccccc1Sc1ccc2c(/C=C/c3ccccn3)n[nH]c2c1
% inhibition: −5%

Nc1ccccc1CNC(=O)c1ccccc1Sc1ccc2c(/C=C/c3ccccn3)n[nH]c2c1
% inhibition: 46%

NC(=O)c1ccc(NC(=O)c2ccccc2Sc2ccc3c(/C=C/c4ccccn4)n[nH]c3c2)cc1
% inhibition: 2%

CC(CCCC(C)(C)O)NC(=O)c1ccccc1Sc1ccc2c(/C=C/c3ccccn3)n[nH]c2c1 (stereo not shown)
% inhibition: 3%

CCCCC(CO)NC(=O)c1ccccc1Sc1ccc2c(/C=C/c3ccccn3)n[nH]c2c1 (stereo not shown)
% inhibition: −28%

O=C(NCc1ccc(F)cc1Cl)c1ccccc1Sc1ccc2c(/C=C/c3ccccn3)n[nH]c2c1
% inhibition: −7%

CC1(C)CC(NC(=O)c2ccccc2Sc2ccc3c(/C=C/c4ccccn4)n[nH]c3c2)CC(C)(C)N1
% inhibition of the proliferation of HUVEC [1]: 35% | % inhibition of the proliferation of HUVEC [2]: 10%

CSCCC(CO)NC(=O)c1ccccc1Sc1ccc2c(C=Cc3ccccn3)n[nH]c2c1 (stereo not shown)
% inhibition: −11%

CCCCN(CCCC)CCNC(=O)c1ccccc1Sc1ccc2c(/C=C/c3ccccn3)n[nH]c2c1
% inhibition: 1%

N#CC(NC(=O)c1ccccc1Sc1ccc2c(/C=C/c3ccccn3)n[nH]c2c1)c1ccc(F)cc1 (stereo not shown)
% inhibition: −20%

COc1ccc(CCNC(=O)c2ccccc2Sc2ccc3c(/C=C/c4ccccn4)n[nH]c3c2)cc1
% inhibition: 10%

O=C(NC1CC1)c1ccc2c(-c3nc4ccccc4[nH]3)n[nH]c2c1 [drawing 587]
% inhibition of the proliferation of HUVEC [3]: 20% | % inhibition of the proliferation of HUVEC [4]: 0% | % inhibition of the proliferation of HUVEC [5]: 43%

O=C(NC[C@@H]1CCCO1)c1ccccc1Sc1ccc2c(/C=C/c3ccccn3)n[nH]c2c1
% inhibition: −11%

Cc1c(O)ccc(NC(=O)c2ccccc2Sc2ccc3c(/C=C/c4ccccn4)n[nH]c3c2)c1C
% inhibition: 4%

CC(C)C(CO)NC(=O)c1ccccc1Sc1ccc2c(/C=C/c3ccccn3)n[nH]c2c1 (stereo not shown)
% inhibition of the proliferation of HUVEC [1]: 21% | % inhibition of the proliferation of HUVEC [2]: −5%

O=C(NCC1(O)CCCCC1)c1ccccc1Sc1ccc2c(/C=C/c3ccccn3)n[nH]c2c1 [drawing 1197]
% inhibition: 2%

CN(C)c1ccc(CNC(=O)c2ccccc2Sc2ccc3c(/C=C/c4ccccn4)n[nH]c3c2)cc1
% inhibition of the proliferation of HUVEC [1]: 32% | % inhibition of the proliferation of HUVEC [2]: 24%

COC(=O)c1sccc1NC(=O)c1ccccc1Sc1ccc2c(/C=C/c3ccccn3)n[nH]c2c1
% inhibition: 2%

CCC(CC)CCCC(C)NC(=O)c1ccccc1Sc1ccc2c(/C=C/c3ccccn3)n[nH]c2c1 (stereo not shown)
% inhibition of the proliferation of HUVEC [1]: 3% | % inhibition of the proliferation of HUVEC [2]: 15%

N#Cc1c(NC(=O)c2ccccc2Sc2ccc3c(/C=C/c4ccccn4)n[nH]c3c2)sc2c1CCC2
% inhibition: −9%

O=C(NCc1ccc(F)cc1)c1ccccc1Sc1ccc2c(/C=C/c3ccccn3)n[nH]c2c1
% inhibition: 57%

O=C(Nc1cnccn1)c1ccccc1Sc1ccc2c(/C=C/c3ccccn3)n[nH]c2c1
% inhibition: −1%

CN(CC#N)C(=O)c1ccc2c(-c3nc4ccccc4[nH]3)n[nH]c2c1
% inhibition of the proliferation of HUVEC [3]: 56% | % inhibition of the proliferation of HUVEC [4]: −17% | % inhibition of the proliferation of HUVEC [5]: 17%

O=C(Nc1ccc(Cl)cn1)c1ccccc1Sc1ccc2c(/C=C/c3ccccn3)n[nH]c2c1
% inhibition: −23%

COc1ccc(NC(=O)c2ccccc2Sc2ccc3c(/C=C/c4ccccn4)n[nH]c3c2)cc1Cl
% inhibition: 2%

O=C(NNC(=O)c1ccccc1Sc1ccc2c(/C=C/c3ccccn3)n[nH]c2c1)c1ccc[nH]1
% inhibition of the proliferation of HUVEC [1]: 60% | % inhibition of the proliferation of HUVEC [2]: 99%

O=C(NCCc1ccccc1Cl)c1ccccc1Sc1ccc2c(/C=C/c3ccccn3)n[nH]c2c1
% inhibition: 9%

O=C(NCC1CCCO1)c1ccccc1Sc1ccc2c(/C=C/c3ccccn3)n[nH]c2c1 (stereo not shown)
% inhibition of the proliferation of HUVEC [1]: 23% | % inhibition of the proliferation of HUVEC [2]: 44%

COc1ccc(NC(=O)c2ccccc2Sc2ccc3c(/C=C/c4ccccn4)n[nH]c3c2)cc1F
% inhibition: 9%

N#Cc1[nH]cnc1NC(=O)c1ccccc1Sc1ccc2c(/C=C/c3ccccn3)n[nH]c2c1
% inhibition: −13%

Nc1cccc(C(=O)c2ccc3c(/C=N/n4cccc4)n[nH]c3c2)c1 [Example 44]
IC50 (read-out: HUVEC IC50): > 700 nM

N#CCc1ccc(NC(=O)c2ccccc2Sc2ccc3c(/C=C/c4ccccn4)n[nH]c3c2)cc1
% inhibition: −13%

O=C(Nc1ccc2[nH]c(=O)[nH]c2c1)c1ccccc1Sc1ccc2c(/C=C/c3ccccn3)n[nH]c2c1
% inhibition: 15%

Cc1cccc(O)c1NC(=O)c1ccccc1Sc1ccc2c(/C=C/c3ccccn3)n[nH]c2c1
% inhibition: 11%

O=C(Nc1nccc2ccccc12)c1ccccc1Sc1ccc2c(/C=C/c3ccccn3)n[nH]c2c1
% inhibition: 4%

CC(C)(C)c1nnc(NC(=O)c2ccccc2Sc2ccc3c(/C=C/c4ccccn4)n[nH]c3c2)s1
% inhibition: −28%

CC(C)CCC(C)NC(=O)c1ccccc1Sc1ccc2c(/C=C/c3ccccn3)n[nH]c2c1 (stereo not shown)
% inhibition of the proliferation of HUVEC [1]: 6% | % inhibition of the proliferation of HUVEC [2]: 44%

COc1ccc(NC(=O)c2ccc3c(-c4nc5ccccc5[nH]4)n[nH]c3c2)cn1
% inhibition of the proliferation of HUVEC [3]: 81% | % inhibition of the proliferation of HUVEC [4]: 11% | % inhibition of the proliferation of HUVEC [5]: 64%

COc1ccc(NC(=O)c2ccccc2Sc2ccc3c(/C=C/c4ccccn4)n[nH]c3c2)cn1
% inhibition: −20%

O=C(Nc1cc(Cl)cc(Cl)c1)c1ccccc1Sc1ccc2c(/C=C/c3ccccn3)n[nH]c2c1
% inhibition: −22%

Nc1ccc(CCNC(=O)c2ccccc2Sc2ccc3c(/C=C/c4ccccn4)n[nH]c3c2)cc1
% inhibition of the proliferation of HUVEC [1]: 32% | % inhibition of the proliferation of HUVEC [2]: 31%

Cc1cc(NC(=O)c2ccccc2Sc2ccc3c(/C=C/c4ccccn4)n[nH]c3c2)no1
% inhibition of the proliferation of HUVEC [1]: 28% | % inhibition of the proliferation of HUVEC [2]: 14%

COC(=O)c1ccc(NC(=O)c2ccc3c(-c4nc5ccccc5[nH]4)n[nH]c3c2)o1 [drawing 608]
% inhibition of the proliferation of HUVEC [1]: 38% | % inhibition of the proliferation of HUVEC [2]: 2%

O=C(Nc1ccccc1)c1ccccc1Sc1ccc2c(/C=C/c3ccccn3)n[nH]c2c1 [drawing 1131]
% inhibition: 11%

O=C(Nc1ccc2cn[nH]c2c1)c1ccc2c(-c3nc4ccccc4[nH]3)n[nH]c2c1
% inhibition of the proliferation of HUVEC [3]: 0% | % inhibition of the proliferation of HUVEC [4]: 2% | % inhibition of the proliferation of HUVEC [5]: 4%

COc1ccc(NC(=O)c2ccccc2Sc2ccc3c(/C=C/c4ccccn4)n[nH]c3c2)cc1OC
% inhibition: 1%

N=C(N)CNC(=O)c1ccccc1Sc1ccc2c(/C=C/c3ccccn3)n[nH]c2c1
% inhibition of the proliferation of HUVEC [1]: 7% | % inhibition of the proliferation of HUVEC [2]: −1%

CC(C)CC(CO)NC(=O)c1ccccc1Sc1ccc2c(C=Cc3ccccn3)n[nH]c2c1 (stereo not shown) [drawing 1021]
% inhibition: −2%

O=C(NCC1(O)CCCCC1)c1ccccc1Sc1ccc2c(/C=C/c3ccccn3)n[nH]c2c1 [drawing 688]
% inhibition of the proliferation of HUVEC [1]: 26% | % inhibition of the proliferation of HUVEC [2]: −19%

CC(=O)Nc1cc(C(=O)c2ccc3c(/C=C/c4ccccn4)n[nH]c3c2)c(C)cc1C [Example 41(nn), 6-(5-Acetamido-2,4-dimethylbenzoyl)-3-E-[2-(pyridin-2-yl)ethenyl]-1H-indazole]
IC50 (+ albumin, read-out: HUVEC + albumin IC50): > 100 nM

CC(C)(C)C(CO)NC(=O)c1ccccc1Sc1ccc2c(C=Cc3ccccn3)n[nH]c2c1 (stereo not shown)
% inhibition: −7%

O=C(NCc1ccccc1Cl)c1ccccc1Sc1ccc2c(/C=C/c3ccccn3)n[nH]c2c1
% inhibition: 7%
